Consider 68 sequences from the supplement of paper PMC11208160.
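Note: IS621 bridge recombinase in Escherichia coli cells against a fixed T5 target plasmid.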

The series in a line: recombinant UMI read abundance after kanamycin selection (control-corrected) (log10(CPM+1)); higher = more efficient recombination; extreme values may be limits of the assay; sequences stand for … in AGTGCAGAGAAAATCGGCCAGTTTTCTCTGCCTGCAGTCCGCATGCCGTGGGACCCCTTGGGTTCTAACCTGTTGCCTAGATTTATGCAGCGGACTGCCTTTCTCCCAAAGTGATAAACCGG…AGGTTGGTTTCACT; site = the 11-nt donor. The method, boiled down:
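Under IPTG (0.07 mM) plus kanamycin, or without selection, Escherichia coli carrying a UMI-tagged donor and donor-binding-loop pair library and a target plasmid for the IS621 bridge recombinase were plated in two replicates. Recombinant UMIs were PCR-amplified across the donor–target junction and sequenced. Counts were converted to CPM, averaged over replicates, scaled by control-derived factors and reported as log10(CPM+1).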
Regarding “GATAAACCATGGACCGGTTTTCCCGGTAATCCGTATTTGGT (site GAAAAACCTAC)”, the “recombinant UMI read abundance (log10)” value was 0.

For “GATAAACCATGGACCGGTTTTCCCGGTAATCCGTATTTGGT (site GACAAACCTAC)”, the “recombinant UMI read abundance (log10)” value was found to be 0.

Consider “GATAAACCATGGACCGGTTTTCCCGGTAATCCGTATTTGGT (site GAGAAACCTAC)”, for which the “recombinant UMI read abundance (log10)” value was found to be 0.

For “GATAAACCATGGACCGGTTTTCCCGGTAATCCGTATTTGGT (site GATAAACCTAC)”, the “recombinant UMI read abundance (log10)” value worked out at 0.

Consider “GATAAAGCATGGACCGGTTTTCCCGGTAATCCGTATTTGGG (site GATAAAGCTCC)”, for which the “recombinant UMI read abundance (log10)” value amounted to 0.172.

Turning to “GATACCACATGGACCGGTTTTCCCGGTAATCCGTATTTGCC (site GATACCACTGG)”, the “recombinant UMI read abundance (log10)” value worked out at 1.33.

Turning to “GATACTGCATGGACCGGTTTTCCCGGTAATCCGTATTTGCC (site GATACTGCTGG)”, the “recombinant UMI read abundance (log10)” value worked out at 0.895.

As for “GATACTGCATGGACCGGTTTTCCCGGTAATCCGTATTTGCC (site GCTACTGCTGG)”, the “recombinant UMI read abundance (log10)” value came out at 0.748.

Consider “GATACTGCATGGACCGGTTTTCCCGGTAATCCGTATTTGCC (site GGTACTGCTGG)”, for which the “recombinant UMI read abundance (log10)” value came to 1.73.

Regarding “GATACTGCATGGACCGGTTTTCCCGGTAATCCGTATTTGCC (site GTTACTGCTGG)”, the “recombinant UMI read abundance (log10)” value worked out at 1.4.

For the sequence “GATAGACCATGGACCGGTTTTCCCGGTAATCCGTATTTGGC (site GATAGACCTGC)”, the “recombinant UMI read abundance (log10)” value was determined as 0.

Regarding “GATAGCACATGGACCGGTTTTCCCGGTAATCCGTATTTGCG (site GATAGCACTCG)”, the “recombinant UMI read abundance (log10)” value stood at 0.578.

Consider “GATAGGACATGGACCGGTTTTCCCGGTAATCCGTATTTGAC (site GATAGGACTGT)”, for which the “recombinant UMI read abundance (log10)” value turned out to be 2.34.

For “GATAGGACATGGACCGGTTTTCCCGGTAATCCGTATTTGAC (site GATCGGACTGT)”, the “recombinant UMI read abundance (log10)” value worked out at 0.114.

As to “GATAGGACATGGACCGGTTTTCCCGGTAATCCGTATTTGAC (site GATGGGACTGT)”, the “recombinant UMI read abundance (log10)” value is 0.531.

For the sequence “GATAGGACATGGACCGGTTTTCCCGGTAATCCGTATTTGAC (site GATTGGACTGT)”, the “recombinant UMI read abundance (log10)” value came to 0.386.

As for “GATAGGACATGGACCGGTTTTCCCGGTAATCCGTATTTGTT (site GATAGGACTAA)”, the “recombinant UMI read abundance (log10)” value stood at 1.43.

With “GATCATACATGGACCGGTTTTCCCGGTAATCCGTATTTGCT (site GATCATACTAG)”, the “recombinant UMI read abundance (log10)” value worked out at 1.82.

Consider “GATCCCGCATGGACCGGTTTTCCCGGTAATCCGTATTTGTC (site GATCCCGCTGA)”, for which the “recombinant UMI read abundance (log10)” value came to 0.846.

As for “GATCCGGCATGGACCGGTTTTCCCGGTAATCCGTATTTGAT (site GATCCGGCTAT)”, the “recombinant UMI read abundance (log10)” value is 0.0999.

“GATGATCCATGGACCGGTTTTCCCGGTAATCCGTATTTGCT (site GATAATCCTAG)”: the “recombinant UMI read abundance (log10)” value came to 0.

As to “GATGATCCATGGACCGGTTTTCCCGGTAATCCGTATTTGCT (site GATCATCCTAG)”, the “recombinant UMI read abundance (log10)” value stood at 0.

Consider “GATGATCCATGGACCGGTTTTCCCGGTAATCCGTATTTGCT (site GATGATCCTAG)”, for which the “recombinant UMI read abundance (log10)” value is 0.

With “GATGATCCATGGACCGGTTTTCCCGGTAATCCGTATTTGCT (site GATTATCCTAG)”, the “recombinant UMI read abundance (log10)” value turned out to be 0.

On to “GATGATTCATGGACCGGTTTTCCCGGTAATCCGTATTTGTT (site GAAGATTCTAA)”, for which the “recombinant UMI read abundance (log10)” value was 0.433.

Regarding “GATGATTCATGGACCGGTTTTCCCGGTAATCCGTATTTGTT (site GACGATTCTAA)”, the “recombinant UMI read abundance (log10)” value is 0.

As for “GATGATTCATGGACCGGTTTTCCCGGTAATCCGTATTTGTT (site GAGGATTCTAA)”, the “recombinant UMI read abundance (log10)” value came out at 0.

For “GATGATTCATGGACCGGTTTTCCCGGTAATCCGTATTTGTT (site GATGATTCTAA)”, the “recombinant UMI read abundance (log10)” value was 1.79.

As to “GATGCCTCATGGACCGGTTTTCCCGGTAATCCGTATTTGTT (site GATGCCTCTAA)”, the “recombinant UMI read abundance (log10)” value turned out to be 0.895.

“GATGGCTCATGGACCGGTTTTCCCGGTAATCCGTATTTGCC (site GATGGCTCTGG)”: the “recombinant UMI read abundance (log10)” value was 2.65.

With “GATGGTTCATGGACCGGTTTTCCCGGTAATCCGTATTTGAT (site GATGGTTCTAT)”, the “recombinant UMI read abundance (log10)” value amounted to 1.58.

With “GATGTGTCATGGACCGGTTTTCCCGGTAATCCGTATTTGAC (site AATGTGTCTGT)”, the “recombinant UMI read abundance (log10)” value came out at 1.67.

With “GATGTGTCATGGACCGGTTTTCCCGGTAATCCGTATTTGAC (site CATGTGTCTGT)”, the “recombinant UMI read abundance (log10)” value came to 0.736.

With “GATGTGTCATGGACCGGTTTTCCCGGTAATCCGTATTTGAC (site GATGTGTCTGT)”, the “recombinant UMI read abundance (log10)” value amounted to 2.61.

As to “GATGTGTCATGGACCGGTTTTCCCGGTAATCCGTATTTGAC (site TATGTGTCTGT)”, the “recombinant UMI read abundance (log10)” value was determined as 0.677.

With “GATTACCCATGGACCGGTTTTCCCGGTAATCCGTATTTGAG (site GATTACCCTCT)”, the “recombinant UMI read abundance (log10)” value was found to be 0.03.

For “GATTACCCATGGACCGGTTTTCCCGGTAATCCGTATTTGCT (site GATTAACCTAG)”, the “recombinant UMI read abundance (log10)” value was found to be 0.

Turning to “GATTACCCATGGACCGGTTTTCCCGGTAATCCGTATTTGCT (site GATTACCCTAG)”, the “recombinant UMI read abundance (log10)” value amounted to 0.

As for “GATTACCCATGGACCGGTTTTCCCGGTAATCCGTATTTGCT (site GATTAGCCTAG)”, the “recombinant UMI read abundance (log10)” value was determined as 0.

With “GATTACCCATGGACCGGTTTTCCCGGTAATCCGTATTTGCT (site GATTATCCTAG)”, the “recombinant UMI read abundance (log10)” value was 0.

On to “GATTATCCATGGACCGGTTTTCCCGGTAATCCGTATTTGCT (site AATTATCCTAG)”, for which the “recombinant UMI read abundance (log10)” value worked out at 0.

As to “GATTATCCATGGACCGGTTTTCCCGGTAATCCGTATTTGCT (site CATTATCCTAG)”, the “recombinant UMI read abundance (log10)” value was 0.436.

For the sequence “GATTATCCATGGACCGGTTTTCCCGGTAATCCGTATTTGCT (site GAATATCCTAG)”, the “recombinant UMI read abundance (log10)” value was found to be 0.

Regarding “GATTATCCATGGACCGGTTTTCCCGGTAATCCGTATTTGCT (site GACTATCCTAG)”, the “recombinant UMI read abundance (log10)” value came out at 0.

For “GATTATCCATGGACCGGTTTTCCCGGTAATCCGTATTTGCT (site GAGTATCCTAG)”, the “recombinant UMI read abundance (log10)” value was determined as 0.

In the case of “GATTATCCATGGACCGGTTTTCCCGGTAATCCGTATTTGCT (site GATAATCCTAG)”, the “recombinant UMI read abundance (log10)” value was determined as 0.

On to “GATTATCCATGGACCGGTTTTCCCGGTAATCCGTATTTGCT (site GATCATCCTAG)”, for which the “recombinant UMI read abundance (log10)” value is 0.81.

Regarding “GATTATCCATGGACCGGTTTTCCCGGTAATCCGTATTTGCT (site GATGATCCTAG)”, the “recombinant UMI read abundance (log10)” value turned out to be 0.

For the sequence “GATTATCCATGGACCGGTTTTCCCGGTAATCCGTATTTGCT (site GATTAACCTAG)”, the “recombinant UMI read abundance (log10)” value came to 0.

Consider “GATTATCCATGGACCGGTTTTCCCGGTAATCCGTATTTGCT (site GATTACCCTAG)”, for which the “recombinant UMI read abundance (log10)” value is 0.

“GATTATCCATGGACCGGTTTTCCCGGTAATCCGTATTTGCT (site GATTAGCCTAG)”: the “recombinant UMI read abundance (log10)” value came out at 0.351.

Turning to “GATTATCCATGGACCGGTTTTCCCGGTAATCCGTATTTGCT (site GATTATACTAG)”, the “recombinant UMI read abundance (log10)” value was 0.

As to “GATTATCCATGGACCGGTTTTCCCGGTAATCCGTATTTGCT (site GATTATCCTAA)”, the “recombinant UMI read abundance (log10)” value is 0.00555.

As to “GATTATCCATGGACCGGTTTTCCCGGTAATCCGTATTTGCT (site GATTATCCTAC)”, the “recombinant UMI read abundance (log10)” value turned out to be 0.0217.

“GATTATCCATGGACCGGTTTTCCCGGTAATCCGTATTTGCT (site GATTATCCTAG)”: the “recombinant UMI read abundance (log10)” value came out at 0.

Turning to “GATTATCCATGGACCGGTTTTCCCGGTAATCCGTATTTGCT (site GATTATCCTAT)”, the “recombinant UMI read abundance (log10)” value is 0.0146.

In the case of “GATTATCCATGGACCGGTTTTCCCGGTAATCCGTATTTGCT (site GATTATCCTCG)”, the “recombinant UMI read abundance (log10)” value came out at 0.

Regarding “GATTATCCATGGACCGGTTTTCCCGGTAATCCGTATTTGCT (site GATTATCCTGG)”, the “recombinant UMI read abundance (log10)” value stood at 0.

As for “GATTATCCATGGACCGGTTTTCCCGGTAATCCGTATTTGCT (site GATTATCCTTG)”, the “recombinant UMI read abundance (log10)” value stood at 0.

For the sequence “GATTATCCATGGACCGGTTTTCCCGGTAATCCGTATTTGCT (site GATTATGCTAG)”, the “recombinant UMI read abundance (log10)” value came to 0.

With “GATTATCCATGGACCGGTTTTCCCGGTAATCCGTATTTGCT (site GATTATTCTAG)”, the “recombinant UMI read abundance (log10)” value came out at 0.

As for “GATTATCCATGGACCGGTTTTCCCGGTAATCCGTATTTGCT (site GATTCTCCTAG)”, the “recombinant UMI read abundance (log10)” value was found to be 0.

In the case of “GATTATCCATGGACCGGTTTTCCCGGTAATCCGTATTTGCT (site GATTGTCCTAG)”, the “recombinant UMI read abundance (log10)” value was 0.

On to “GATTATCCATGGACCGGTTTTCCCGGTAATCCGTATTTGCT (site GATTTTCCTAG)”, for which the “recombinant UMI read abundance (log10)” value was 0.

For the sequence “GATTATCCATGGACCGGTTTTCCCGGTAATCCGTATTTGCT (site GCTTATCCTAG)”, the “recombinant UMI read abundance (log10)” value was 0.

For “GATTATCCATGGACCGGTTTTCCCGGTAATCCGTATTTGCT (site GGTTATCCTAG)”, the “recombinant UMI read abundance (log10)” value is 0.

Consider “GATTATCCATGGACCGGTTTTCCCGGTAATCCGTATTTGCT (site GTTTATCCTAG)”, for which the “recombinant UMI read abundance (log10)” value is 0.

With “GATTATCCATGGACCGGTTTTCCCGGTAATCCGTATTTGCT (site TATTATCCTAG)”, the “recombinant UMI read abundance (log10)” value was 0.
